# Source: patent US20150141349A1, “Method and Composition for Alleviating Tumor Symptoms” (Angiogene Pharmaceuticals Ltd., priority 2012, published 2015)
# “And” between values parts separate entries of the source, which are not always exact repeats. Equal values may be shown once.
# Columns and labels:
# [1] = tested on: GH3 pituitary tumor cells; assay: Tumor necrosis in GH3 tumors (prolactinomas) after CA4P (H&E histology, image analysis); type: in vivo, rat
# Description: (§1) Eighteen female Wistar Furth rats (Charles River, France), weighing approximately 130-140 g, were inoculated subcutaneously in the flanks with 1×10^6 GH3 pituitary tumor cells. Tumors were typically used for experimentation when they reached approximately 1 cm in diameter, or 300-1000 mm^3. Blood was taken from the tail vein of each rat 24 h before treatment with 100 mg/kg of vascular disrupting agent, CA4P, formulated in 20% of 5% aqueous sodium bicarbonate in 80% phosphate buffered saline. The CA4P was administered as a bolus injection through the tail vein. 24 h or 48 h after treatment a further blood sample was taken from the tail vein and the rats euthanized. Tumors were excised, fixed in formalin and stained with H&E for histology. Necrosis was determined by image analysis (Image J).
# [2] = tested on: GH3 pituitary tumor cells; assay: Prolactin and growth hormone (ELISA) in GH3 tumor-bearing rats treated with CA4P; type: in vivo, rat; set-up: tumor GH pre- / tumor GH post-: unit not given beside the values; conditions: for Growth Hormone tumor-derived: historical background 46 ng/ml subtracted; for Prolactin tumor-derived: historical basal level 26 ng/ml subtracted; for GH % decrease: tumor-derived GH
# Description: as §1
# Prolactin and growth hormone were measured using commercial ELISA's (SPI/BIO Bertin Pharma/Cayman kits sourced from Bioquote Limited, York, UK). Tumor-derived prolactin levels were calculated assuming a historical basal level of 26 ng/ml. […] Tumor-derived growth hormone levels were calculated by subtracting a historical value for background growth hormone of 46 ng/ml. […] All measurements for the control group were performed 24 hours after injection of saline.
# [3] = tested on: Pancreatic Endocrine Tumors; assay: Serum insulin (ELISA) in Pdx1-Cre:Men1floxed/floxed mice treated with CA4P; type: in vivo
# Description: Eight Pdx1-Cre:Men1floxed/floxed mice (described in Shen et al. Cancer Res. 2009, 69(5):1858-66) were divided into treated group (n=4) and control group (n=4). In an ongoing experiment, the mice from the treated group and control group were injected i.p. daily with CA4P (100 mg/kg) and saline, respectively, for three days monthly. The mice underwent a 24 h fast prior to collecting whole blood via a retro-orbital bleeding technique weekly at pre- and post-treatment. Glucose levels were monitored by enzymatic colorimetric assay. All mice underwent a microPET/CT scan monthly. Anti-tumor activity was measured by standardized-uptake value (SUV) analysis. All mice were weighed three times per week as an indicator of toxicity.
# [4] = tested on: GH3 pituitary tumor cells; assay: Tumor necrosis in GH3 rat pituitary tumors after ZD6126 (H&E histology, image analysis); type: in vivo; conditions: individual rats; 24 h after 50 mg/kg ZD6126 bolus tail vein
# Description: (§2) Four female Wistar Furth rats, weighing approximately 160 g, were inoculated subcutaneously in the flanks with GH3 pituitary tumor cells. Tumors were typically used for experimentation when they reached approximately 1000-3000 mm^3. Blood was taken from the tail vein of each rat 24 h before treatment with 50 mg/kg of vascular disrupting agent, ZD6126, formulated in 20% of 5% aqueous sodium bicarbonate in 80% phosphate buffered saline. The vascular disrupting agent was administered as a bolus injection through the tail vein. 24 h after treatment a further blood sample was taken from the tail vein and the rats euthanized. Tumors were excised, fixed in formalin and stained with H&E for histology. Necrosis was determined by image analysis (Image J). Blood samples were analyzed for prolactin and growth hormone at by ELISA using kits supplied by SPIbio.
# [5] = tested on: GH3 pituitary tumor cells; assay: Circulating growth hormone and prolactin (ELISA) in GH3 tumor-bearing rats treated with ZD6126; type: in vivo, rat; set-up: Growth Hormone pre / Growth Hormone post / Prolactin pre / Prolactin post: unit not given beside the values
# Description: as §2
# Since control animals had significant levels of both hormones (within the normal range) and since the VDA could not be expected to reduce normal host hormone production it might be reasonable to subtract a figure from each reading to allow for the persisting host-derived hormone. Although data on normal hormone levels were derived from a single control (non-tumor bearing) animal, the values are very much in agreement with those reported in the literature. Subtracting this value would give a rough estimate of the reduction in rats 1 and 2 of tumor-derived growth hormone of 72% and 40% and a reduction in tumor-derived prolactin of 65% and 33% respectively.
# [6] = tested on: carcinoid metastases; conditions: compared with 55% for hepatic artery embolization; cited from earlier work
# [7] = tested on: neuroendocrine tumor; conditions: prolonged treatment, in combination with octreotide (Yao et al. 2008); cited from earlier work
# [8] = 24 h after 100 mg/kg CA4P, individual rats
# [9] = 48 h after 100 mg/kg CA4P, individual rats
# [10] = 24 h after 50 mg/kg ZD6126, individual rats, ±SD
# [11] = baseline, blood 24 h before ZD6126 treatment, individual rats, ±SD
# [12] = pre vs 24 h after 50 mg/kg ZD6126, individual rats
# [13] = rats 1 and 2, rough estimate after subtracting value of tumor-free control
compound,measurement,setting,value
"COc1ccc(/C=C\c2cc(OC)c(OC)c(OC)c2)cc1OP(=O)(O)O [CA4P, combretastatin A-4 phosphate]",% tumor necrosis,"[1]; 24 h after 100 mg/kg CA4P, group mean",43.7 ± 29.6%
same,% tumor necrosis,[1]; [8],83% and 58% and 3% and 59% (2×)
same,% tumor necrosis,"[1]; 48 h after 100 mg/kg CA4P, group mean",61.7 ± 27.4%
same,% tumor necrosis,[1]; [9],77% and 30%
same,Prolactin total,"[2]; 24 h after 100 mg/kg CA4P bolus tail vein, n=6",64.6 ± 19.1 ng/ml ± SD
same,Growth Hormone tumor-derived,"[2]; 24 h after 100 mg/kg CA4P, n=6",29.1 ± 13.6 ng/ml ± SD
same,Prolactin tumor-derived,"[2]; 24 h after 100 mg/kg CA4P, n=6",38.6 ± 19.1 ng/ml ± SD
same,tumor GH post-,[2]; [8],15.8 and 29.1 and 48.4 and 19.2 and 42.4
same,GH % decrease,[2]; [8],63.2% and 36.0% and 21.6% and 50.0% and 6.2%
same,Growth Hormone total,"[2]; 24 h after 100 mg/kg CA4P, n=6",75.1 ± 13.6 ng/ml ± SD
same,Growth Hormone tumor-derived,"[2]; 48 h after 100 mg/kg CA4P, n=2",20.8 ± 7.8 ng/ml ± SD
same,Prolactin tumor-derived,"[2]; 48 h after 100 mg/kg CA4P, n=2",28.3 ± 20.2 ng/ml ± SD
same,tumor GH post-,[2]; [9],15.3 and 26.3
same,GH % decrease,[2]; [9],64.1% and 35.2%
same,Growth Hormone total,"[2]; 48 h after 100 mg/kg CA4P, n=2",66.8 ± 7.8 ng/ml ± SD
same,Prolactin total,"[2]; 48 h after 100 mg/kg CA4P, n=2",54.3 ± 20.2 ng/ml ± SD
same,tumor GH pre-,"[2]; baseline before CA4P, individual rats, tumor-derived growth hormone",42.9 and 45.5 and 61.7 and 38.4 and 45.2 and 42.6 and 40.6
same,total and tumor-derived growth hormone after treatment (in words),"[2]; p<0.03, one-tailed t-test",statistically lower amount
same,total and tumor-derived prolactin after treatment (in words),"[2]; p<0.04, one-tailed T-test",statistically lower amount
same,Serum Insulin,"[3]; Day 0 (baseline), CA4P group n=4, P vs PBS 0.6720",3.695 ± 0.669 µg/L
same,Serum Insulin,"[3]; Day 4, CA4P 100 mg/kg i.p. daily for three days, 24 h fast, P vs PBS 0.3699",3.060 ± 1.037 µg/L
same,Serum Insulin,"[3]; Day 11, CA4P 100 mg/kg i.p. daily for three days, 24 h fast, P vs PBS 0.0350",2.495 ± 0.8722 µg/L
COc1cc2c(c(OC)c1OC)-c1ccc(OP(=O)(O)O)cc1[C@@H](NC(C)=O)CC2 [ZD6126],% necr. (tumor necrosis),[4],39% and 42% and little or no necrosis and 0%
same,Growth Hormone post,[5]; [10],91 ± 7 and 102 ± 4 and 204 ± 14 and 171 ± 11
same,Prolactin post,[5]; [10],90 ± 2 and 78 ± 3 and 129 ± 5 and 52 ± 1
same,Growth Hormone pre,[5]; [11],214 ± 11 and 139 ± 8 and 193 ± 4 and 146 ± 4
same,Prolactin pre,[5]; [11],211 ± 28 and 104 ± 3 and 134 ± 17 and 53 ± 3
same,Growth Hormone Δ (percent reduction),[5]; [12],57 and 26 and −5 and −16
same,Prolactin Δ (percent reduction),[5]; [12],57 and 24 and 4 and 1
same,reduction in tumor-derived prolactin,[5]; [13],~65% and ~33%
same,reduction of tumor-derived growth hormone,[5]; [13],~72% and ~40%
CO[C@H]1C[C@@H]2CC[C@@H](C)[C@@](O)(O2)C(=O)C(=O)N2CCCC[C@H]2C(=O)O[C@H]([C@H](C)C[C@@H]2CC[C@@H](OCCO)[C@H](OC)C2)CC(=O)[C@H](C)/C=C(\C)[C@@H](O)[C@@H](OC)C(=O)[C@H](C)C[C@H](C)/C=C/C=C/C=C/1C [everolimus],response rate (Phase II trials),[6],13%
COc1cc2ncnc(Nc3ccc(F)c(Cl)c3)c2cc1OCCCN1CCOCC1 [gefitinib],response rate (Phase II trials),[6],2%
Cc1ccc(NC(=O)c2ccc(CN3CCN(C)CC3)cc2)cc1Nc1nccc(-c2cccnc2)n1 [imatinib],response rate (Phase II trials),[6],4%
CNC(=O)c1cc(Oc2ccc(NC(=O)Nc3ccc(Cl)c(C(F)(F)F)c3)cc2)ccn1 [sorafenib],response rate (Phase II trials),[6],10%
Clc1ccc(Nc2nnc(Cc3ccncc3)c3ccccc23)cc1 [valatinib],response rate (Phase II trials),[6],0%
bevacizumab: anti-VEGF antibody,neuroendocrine tumor patients achieving a meaningful reduction in urinary 5-HIAA,[7],19%
same,patients achieving a reduction in plasma levels of chromogranin A,[7],6%
same,response rate (Phase II trials),[6],18%
